From US20260297102A1, “HETEROCYCLIC COMPOUNDS AS PARP1 INHIBITORS” (Synnovation Therapeutics, Inc., priority 2023, published 2026) come the findings set out here.

For the assay, the target named is T1, PARP1 (Homo sapiens, UniProt P09874).
T1 construct: HeLa cells (wide-type with PARP1 gene) were purchased from ATCC; host or cells: HeLa
The experiment in a line: In-Cell Western Measurement of PARylation in PARP1 WT and Knockout Cells (HeLa_WT). The class given is cell-based. To be noted: HeLa cells (wild-type PARP1); suppression of hydrogen peroxide-induced PARylation; 60 min pre-treatment, 10 mM H2O2 for 15 min; read-out: HeLa_WT_IC50. How it is done: The purpose of this cell-based assay is to measure the potency and selectivity of synthesized PARP inhibitors in suppressing hydrogen peroxide-induced PARylation in cells with and without PARP1 expression. Several cell lines were used in this assay. HeLa cells (wide-type with PARP1 gene) were purchased from ATCC. The HAP1 cell line without the PARP1 gene (#HZGHC003943c006) was purchased from Horizon Discovery. Cells were cultured using complete medium containing 10% fetal bovine serum. One day before the assay, cells were seeded in 96-well plates at the density of 20,000 cells per well in 80 uL complete medium. Compounds were dissolved using DMSO and diluted to the working concentrations using complete medium. Cells were pre-treated with compounds for 60 min and then stimulated with 10 mM hydrogen peroxide for 15 min. After stimulation, cells were immediately fixed using ice-cold methanol for 20 min. After fixation, cells were washed using 1×PBST buffer for 3 times, 5 min each time, to eliminate residual methanol. Cells were blocked for 1 h at room temperature in blocking buffer (10% goat serum, 1% BSA, 0.1% Triton X-100 in PBST). Primary antibody was diluted in blocking buffer at 50 uL per well. Cells were incubated with the primary antibody (Adipogen, AG-20T-0001-M001, 1:300) at 4° C. for 18 h. The wells were then washed using 1×PBST for 3 times, 5 min each time. IRDye® 680RD Goat anti-Mouse IgG (H+L) secondary antibody was diluted at 1/1000 using the diluent buffer and added at 50 uL per well. Secondary antibody incubation was for 1 h at room temperature. Cells were then washed using 1×PBST for 3 times, 5 min each time. The signal was detected and analyzed using LI-COR Odyssey DLx Imaging system. Data were collected and further processed using GraphPad Prism for IC50 estimation.

pIC50: −log10 of the molar value. A value given as a limit tells only on which side of the number the result lay.

T1 sequence (P09874 whole entry): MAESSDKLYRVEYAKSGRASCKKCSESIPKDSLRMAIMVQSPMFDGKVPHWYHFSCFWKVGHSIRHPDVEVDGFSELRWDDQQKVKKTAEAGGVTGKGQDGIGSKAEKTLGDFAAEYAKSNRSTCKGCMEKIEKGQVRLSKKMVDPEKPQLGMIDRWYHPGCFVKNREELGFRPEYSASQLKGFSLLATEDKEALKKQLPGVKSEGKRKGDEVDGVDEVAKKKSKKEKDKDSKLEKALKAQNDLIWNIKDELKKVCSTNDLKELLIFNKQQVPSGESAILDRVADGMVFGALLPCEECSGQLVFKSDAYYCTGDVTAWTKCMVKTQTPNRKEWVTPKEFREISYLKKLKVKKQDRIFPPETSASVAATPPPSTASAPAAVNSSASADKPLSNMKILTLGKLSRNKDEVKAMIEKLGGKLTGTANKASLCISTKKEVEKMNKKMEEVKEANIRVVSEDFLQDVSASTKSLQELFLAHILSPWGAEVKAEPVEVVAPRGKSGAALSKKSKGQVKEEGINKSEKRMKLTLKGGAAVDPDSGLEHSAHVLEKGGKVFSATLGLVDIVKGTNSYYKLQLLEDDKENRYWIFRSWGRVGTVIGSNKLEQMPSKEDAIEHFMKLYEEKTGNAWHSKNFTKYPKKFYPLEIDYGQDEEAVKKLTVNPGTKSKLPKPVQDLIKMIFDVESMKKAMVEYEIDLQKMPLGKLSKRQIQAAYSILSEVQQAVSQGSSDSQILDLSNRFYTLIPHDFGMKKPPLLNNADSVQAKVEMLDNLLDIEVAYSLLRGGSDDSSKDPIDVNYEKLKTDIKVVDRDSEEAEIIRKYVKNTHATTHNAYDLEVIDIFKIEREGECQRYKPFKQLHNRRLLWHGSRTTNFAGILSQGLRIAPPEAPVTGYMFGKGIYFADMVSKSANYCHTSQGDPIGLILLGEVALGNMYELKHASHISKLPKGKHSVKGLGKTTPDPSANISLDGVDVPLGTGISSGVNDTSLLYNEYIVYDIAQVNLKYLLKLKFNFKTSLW

`CNC(=O)c1ccc(N2CCN(Cc3cc4nn5c6c4c(c3F)NC(=O)N6CCC5)CC2)c(C)n1` [Compound 1, 5-(4-((7-Fluoro-9-oxo-2,3,8,9-tetrahydro-1H-3a,4,8,9a-tetraazacyclopenta[def]phenanthren-6-yl)methyl)piperazin-1-yl)-N,6-dimethylpicolinamide]: the pIC50 was 7.00 to 8.00.

Turning to `Cc1nc(C(=O)NC2CC2)ccc1N1CCN(Cc2cc3nn4c5c3c(c2F)NC(=O)N5CCC4)CC1` [Compound 2, N-Cyclopropyl-5-(4-((7-fluoro-9-oxo-2,3,8,9-tetrahydro-1H-3a,4,8,9a-tetraazacyclopenta[def]phenanthren-6-yl)methyl)piperazin-1-yl)-6-methylpicolinamide], the pIC50 is 7.00 to 8.00.

As to `CNC(=O)c1ccc(N2CCN(Cc3cc4ncc5c6c4c(c3F)NC(=O)N6CCO5)CC2)c(C)n1` [Compound 3, 5-(4-((6-Fluoro-4-oxo-2,3,4,5-tetrahydro-1-oxa-3a,5,9-triazapyren-7-yl)methyl)piperazin-1-yl)-N,6-dimethylpicolinamide], the pIC50 was not below 8.00.

`Cc1nc(C(=O)NC2CC2)ccc1N1CCN(Cc2cc3ncc4c5c3c(c2F)NC(=O)N5CCO4)CC1` [Compound 4, N-Cyclopropyl-5-(4-((6-fluoro-4-oxo-2,3,4,5-tetrahydro-1-oxa-3a,5,9-triazapyren-7-yl)methyl)piperazin-1-yl)-6-methylpicolinamide]: the pIC50 is not below 8.00.

Take `CNC(=O)c1ccc(N2CCN(Cc3cc4ncc5c6c4c(c3F)NC(=O)N6CCC5)CC2)c(C)n1` [Compound 5, 5-(4-((7-Fluoro-5-oxo-2,3,5,6-tetrahydro-1H-[1,6]naphthyridino[1,8,7-cde]quinazolin-8-yl)methyl)piperazin-1-yl)-N,6-dimethylpicolinamide]: the pIC50 is not below 8.00.

With `Cc1nc(C(=O)NC2CC2)ccc1N1CCN(Cc2cc3ncc4c5c3c(c2F)NC(=O)N5CCC4)CC1` [Compound 6, N-Cyclopropyl-5-(4-((7-fluoro-5-oxo-2,3,5,6-tetrahydro-1H-[1,6]naphthyridino[1,8,7-cde]quinazolin-8-yl)methyl)piperazin-1-yl)-6-methylpicolinamide], the pIC50 was not below 8.00.

As for `CCN1C(=O)Nc2c(F)c(CN3CCN(c4ccc(C(=O)NCCO)nc4C)CC3)cc3ncnc1c23` [Compound 7, 5-(4-((3-Ethyl-9-fluoro-2-oxo-2,3-dihydro-1H-pyrimido[4,5,6-de]quinazolin-8-yl)methyl)piperazin-1-yl)-N-(2-hydroxyethyl)-6-methylpicolinamide], the pIC50 was not below 8.00.

On to `CCN1C(=O)Nc2c(F)c(CN3CCN(c4ccc(C(=O)NCCC#N)nc4C)CC3)cc3ncnc1c23` [Compound 8, N-(2-cyanoethyl)-5-(4-((3-ethyl-9-fluoro-2-oxo-2,3-dihydro-1H-pyrimido[4,5,6-de]quinazolin-8-yl)methyl)piperazin-1-yl)-6-methylpicolinamide], for which the pIC50 was not below 8.00.

For `CCN1C(=O)Nc2c(F)c(CN3CCN(c4ccc(C(=O)NCC#N)nc4C)CC3)cc3ncnc1c23` [Compound 9, N-(cyanomethyl)-5-(4-((3-ethyl-9-fluoro-2-oxo-2,3-dihydro-1H-pyrimido[4,5,6-de]quinazolin-8-yl)methyl)piperazin-1-yl)-6-methylpicolinamide], the pIC50 was not below 8.00.

As to `CCN1C(=O)Nc2c(F)c(CN3CCN(c4ccc(C(=O)N[C@H]5C[C@H](O)C5)nc4C)CC3)cc3ncnc1c23` [Compound 10, 5-(4-((3-Ethyl-9-fluoro-2-oxo-2,3-dihydro-1H-pyrimido[4,5,6-de]quinazolin-8-yl)methyl)piperazin-1-yl)-N-((1r,3r)-3-hydroxycyclobutyl)-6-methylpicolinamide], the pIC50 is not below 8.00.

Consider `CCN1C(=O)Nc2cc(CN3CCN(c4ccc(C(=O)NCCO)nc4C)CC3)cc3ncnc1c23` [Compound 13, 5-(4-((3-Ethyl-2-oxo-2,3-dihydro-1H-pyrimido[4,5,6-de]quinazolin-8-yl)methyl)piperazin-1-yl)-N-(2-hydroxyethyl)-6-methylpicolinamide], for which the pIC50 is not below 8.00.

Take `CCN1C(=O)Nc2cc(CN3CCN(c4ccc(C(=O)NCCC#N)nc4C)CC3)cc3ncnc1c23` [Compound 14, N-(2-cyanoethyl)-5-(4-((3-ethyl-2-oxo-2,3-dihydro-1H-pyrimido[4,5,6-de]quinazolin-8-yl)methyl)piperazin-1-yl)-6-methylpicolinamide]: the pIC50 was not below 8.00.

Regarding `CCN1C(=O)Nc2cc(CN3CCN(c4ccc(C(=O)NCC#N)nc4C)CC3)cc3ncnc1c23` [Compound 15, N-(cyanomethyl)-5-(4-((3-ethyl-2-oxo-2,3-dihydro-1H-pyrimido[4,5,6-de]quinazolin-8-yl)methyl)piperazin-1-yl)-6-methylpicolinamide], the pIC50 was not below 8.00.

For `CCN1C(=O)Nc2cc(CN3CCN(c4ccc(C(=O)NC5CC5)nc4C)CC3)cc3ncnc1c23` [Compound 16, N-cyclopropyl-5-(4-((3-ethyl-2-oxo-2,3-dihydro-1H-pyrimido[4,5,6-de]quinazolin-8-yl)methyl)piperazin-1-yl)-6-methylpicolinamide], the pIC50 is not below 8.00.

Consider `CCN1C(=O)Nc2cc(CN3CCN(c4ccc(C(=O)NC5(C#N)CC5)nc4C)CC3)cc3ncnc1c23` [Compound 17, N-(1-cyanocyclopropyl)-5-(4-((3-ethyl-2-oxo-2,3-dihydro-1H-pyrimido[4,5,6-de]quinazolin-8-yl)methyl)piperazin-1-yl)-6-methylpicolinamide], for which the pIC50 was not below 8.00.

For `CCN1C(=O)Nc2cc(CN3CCN(c4ccc(C(=O)NC5CCC5)nc4C)CC3)cc3ncnc1c23` [Compound 18, N-cyclobutyl-5-(4-((3-ethyl-2-oxo-2,3-dihydro-1H-pyrimido[4,5,6-de]quinazolin-8-yl)methyl)piperazin-1-yl)-6-methylpicolinamide], the pIC50 is not below 8.00.

For `CCN1C(=O)Nc2cc(CN3CCN(c4ccc(C(=O)N[C@H]5C[C@@H](O)C5)nc4C)CC3)cc3ncnc1c23` [Compound 19, 5-(4-((3-ethyl-2-oxo-2,3-dihydro-1H-pyrimido[4,5,6-de]quinazolin-8-yl)methyl)piperazin-1-yl)-N-((1s,3s)-3-hydroxycyclobutyl)-6-methylpicolinamide], the pIC50 was not below 8.00.

Take `CCN1C(=O)Nc2cc(CN3CCN(c4ccc(C(=O)N[C@H]5C[C@H](O)C5)nc4C)CC3)cc3ncnc1c23` [Compound 20, 5-(4-((3-ethyl-2-oxo-2,3-dihydro-1H-pyrimido[4,5,6-de]quinazolin-8-yl)methyl)piperazin-1-yl)-N-((1r,3r)-3-hydroxycyclobutyl)-6-methylpicolinamide]: the pIC50 is not below 8.00.

In the case of `CCN1C(=O)Nc2cc(CN3CCN(c4ccc(C(=O)N[C@H]5[C@@H]6COC[C@@H]65)nc4C)CC3)cc3ncnc1c23` [Compound 21, N-((1R,5S,6r)-3-oxabicyclo[3.1.0]hexan-6-yl)-5-(4-((3-ethyl-2-oxo-2,3-dihydro-1H-pyrimido[4,5,6-de]quinazolin-8-yl)methyl)piperazin-1-yl)-6-methylpicolinamide], the pIC50 is not below 8.00.

Consider `CCN1C(=O)Nc2cc(CN3CCN(c4ccc(C(=O)N[C@H]5C[C@H](C#N)C5)nc4C)CC3)cc3ncnc1c23` [Compound 24, N-((1r,3r)-3-cyanocyclobutyl)-5-(4-((3-ethyl-2-oxo-2,3-dihydro-1H-pyrimido[4,5,6-de]quinazolin-8-yl)methyl)piperazin-1-yl)-6-methylpicolinamide], for which the pIC50 is not below 8.00.

Regarding `CCN1C(=O)Nc2cc(CN3CCN(c4ccc(C(=O)N[C@H]5C[C@@H](C#N)C5)nc4C)CC3)cc3ncnc1c23` [Compound 25, N-((1s,3s)-3-cyanocyclobutyl)-5-(4-((3-ethyl-2-oxo-2,3-dihydro-1H-pyrimido[4,5,6-de]quinazolin-8-yl)methyl)piperazin-1-yl)-6-methylpicolinamide], the pIC50 was not below 8.00.

Regarding `CCN1C(=O)Nc2cc(CN3CCN(c4ccc(C(=O)NC5(CC#N)CC5)nc4C)CC3)cc3ncnc1c23` [Compound 26, N-(1-(cyanomethyl)cyclopropyl)-5-(4-((3-ethyl-2-oxo-2,3-dihydro-1H-pyrimido[4,5,6-de]quinazolin-8-yl)methyl)piperazin-1-yl)-6-methylpicolinamide], the pIC50 was not below 8.00.
